Patent US7259000B2, “Polynucleotides encoding chimeric chemokine receptors” (Bristol-Myers Squibb Company, priority 2003, dated 2007)
“Also recorded” adds a separate entry of the source.

Key:
CCR3 = target: T1, CCR3 (Homo sapiens, UniProt P51677); test: 125I-eotaxin binding assay on human eosinophils; conditions: native human eosinophils; 0.15 nM 125I-labeled human eotaxin; room temperature
T1 construct: cells expressing endogenous human CCR3; endogenous in cells; host or cells: native human eosinophils
T1 sequence (P51677 1-355): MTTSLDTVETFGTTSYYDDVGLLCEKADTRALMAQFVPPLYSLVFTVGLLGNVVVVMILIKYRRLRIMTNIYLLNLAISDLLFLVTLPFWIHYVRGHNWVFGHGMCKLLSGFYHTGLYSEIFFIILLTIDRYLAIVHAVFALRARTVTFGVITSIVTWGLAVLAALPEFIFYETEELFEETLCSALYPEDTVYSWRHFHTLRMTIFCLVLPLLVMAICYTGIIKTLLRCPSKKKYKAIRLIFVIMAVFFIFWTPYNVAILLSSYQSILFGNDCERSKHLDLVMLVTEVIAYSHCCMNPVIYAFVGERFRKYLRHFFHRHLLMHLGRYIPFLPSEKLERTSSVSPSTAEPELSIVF
Procedure: (§1) In order to compare the ability of cells expressing chimeric human CCR3/2 molecules to that of cells expressing endogenous human CCR3 to bind eotaxin, a binding assay was performed. Depending upon the questions being asked, the cells in question were either human or mouse eosinophils, CHO-K1 cells expressing recombinant CCR3 or CCR3/2, parental CHO-K1 cells or other cell types. All assay steps were conducted at room temperature. Multiscreen assay plates (#MABVN1250, Millipore Inc., Marlborough, Mass.) were incubated with 100 μl/well of blocking solution (7.5 μg/ml protamine in PBS) to block non-specific binding. After 20 minutes, the blocking solution was removed and replaced with 100 μl of binding buffer, (RPMI 1640 (Life Technologies, Grand Island, N.Y.) containing 0.1% bovine serum albumin and 20 mM HEPES buffer) and incubated for at least an additional 10 minutes.
(§2) When ready to use plate(s), the following procedure was employed. Remove the binding buffer and add the following to the well types indicated:
(§3) to TOTAL binding wells add 50 μl of binding buffer;
(§4) to NON-SPECIFIC binding wells add 50 μl of unlabeled human eotaxin to 100 nM and 1000 nM final concentration (recombinant human eotaxin—#320-EO/CF, R&D Systems, Minneapolis, Minn.) in 50 μl binding buffer; […]
(§5) Binding data were analyzed using Microsoft EXCEL and then graphed using GRAPHPAD PRISMT™. […]

CCR3/2 chimera = target: T2, CCR3/2 chimera (Homo sapiens, UniProt P51677); test: 125I-eotaxin binding assay on CHO CCR3/2 clone 5.5 cells
T2 construct: The total length of the CCR3/2 chimeric molecule described herein is 356 amino acids; CCR2B cytoplasmic tail (fusion partner replacing the CCR3 C terminus); expressed in transfected cells
T2 sequence (P51677 with tags, fused parts or gaps): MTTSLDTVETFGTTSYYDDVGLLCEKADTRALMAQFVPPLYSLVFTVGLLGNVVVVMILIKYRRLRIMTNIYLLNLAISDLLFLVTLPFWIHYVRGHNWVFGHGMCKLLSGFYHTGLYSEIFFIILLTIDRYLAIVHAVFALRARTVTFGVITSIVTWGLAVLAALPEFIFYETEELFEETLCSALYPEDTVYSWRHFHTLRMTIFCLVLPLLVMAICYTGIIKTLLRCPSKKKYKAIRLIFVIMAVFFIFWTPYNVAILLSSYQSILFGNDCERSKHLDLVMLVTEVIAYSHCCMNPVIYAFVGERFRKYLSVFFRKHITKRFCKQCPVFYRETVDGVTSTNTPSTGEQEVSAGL
Procedure: as §1, §2, §3, §4, §5

chimeric CCR3/2 receptor = target: T3, chimeric CCR3/2 receptor (Homo sapiens, UniProt P51677); test: phospho-ERK western blot after eotaxin stimulation of CHO CCR3/2 clone 5.5 cells; format: cell-based; conditions: nanomolar eotaxin
T3 construct: The total length of the CCR3/2 chimeric molecule described herein is 356 amino acids; CCR2B cytoplasmic tail (fusion partner replacing the CCR3 C terminus); expressed in transfected cells
T3 sequence (P51677 with tags, fused parts or gaps): T2 sequence (P51677 with tags, fused parts or gaps)
Source text: Part of the downstream signalling cascade involves the activity of kinases (proteins that add phosphate groups to specific residues in cellular proteins, thereby causing them to take on new activities and cellular roles). In the present Example, the phosphorylation of Erk (a member of a protein kinase signalling cascade) is considered to be an indication that binding of eotaxin at the cell surface is recognized by the cell signalling machinery that lies within the cytoplasm and nucleus.
Thus, the present invention further provides that a chimeric chemokine receptor (e.g., the chimeric CCR3/2 receptor) when expressed in cells is capable of downstream signalling when binding to its cognate ligand (e.g., eotaxin). Such downstream signalling involves the MAP kinase pathway, more specifically, the phosphorylation of Erk1 and Erk2 subsequent to binding of eotaxin by either CCR3 or CCR3/2.
Analysis of cell stimulation for phospho-ERK analysis by western blotting was done as previously described (Scherle et al., (1998) J. Immunol. 161(10):5681-86) with the exception that cells were specifically stimulated by exposure to eotaxin (nanomolar exposures to eotaxin listed on the bottoms of FIGS. 7A and 7B) instead of the more generic stimulant lipopolysaccharide as described in Sherle et al. (Scherle et al., (1998) J. Immunol. 161(10):5681-86).

competition with labeled eotaxin for binding (drug inhibition curve) (CCR3) | Erk phosphorylation (downstream signalling) on exposure to eotaxin (chimeric CCR3/2 receptor) | Compound | competition with labeled eotaxin for binding (drug inhibition curve) (CCR3/2 chimera; CHO CCR3/2 clone 5.5, 0.15 nM 125I-labeled human eotaxin, room temperature) | eotaxin binding (CCR3/2 chimera; CHO cells expressing human CCR3/2)
comparable |  | C[C@@H](NC(=O)Nc1cccc(-c2nnnn2C)c1)[C@@H](O)CN1CCC[C@@H](Cc2ccc(F)cc2)C1 [Compound 1, N-{(1R,2S)-3-[(3S)-3-(4-fluorobenzyl)-1-piperidinyl]-2-hydroxy-1-methylpropyl}-N′-[3-(1-methyl-1H-tetraazol-5-yl)phenyl]urea] | comparable; also recorded: compete with eotaxin for binding | 
 | able to transmit a signal | eotaxin: recombinant human eotaxin, chemokine peptide ligand of CCR3 (R&D Systems #320-EO/CF; 125I-labeled form from Perkin Elmer) |  | high levels of specific eotaxin binding; also recorded: high affinity
